Laboratory results reported in patent publication US12485174B2, “HDAC6-activated macrophages, compositions, and uses thereof” (The George Washington University, A Congressionally …, priority 2019, dated 2025).

Tests used:
[1] = system: bone marrow-derived macrophages; assay: SIINFEKL antigen cross-presentation (XPT) by polarized bone marrow derived macrophages, MHCI-SIINFEKL antibody, FACS; assay type: cell-based, mouse; settings: M1 polarized macrophages pre-treated with NextA, OVA peptide 24 hours
Protocol: FIG. 1 is a line graph showing the SIINFEKL antigen levels derived from OVA peptide and detected by MHCI-SIINFEKL specific antibody as measured by FACS in bone marrow-derived macrophages from wild type or HDAC6 KO (knockout) mice. Macrophages were pre-treated with Nexturastat A (NextA) 5 μM and then polarized for 24 hours.
FIG. 2 is a graph showing the MHCI-SIINFEKL levels in polarized macrophages derived from wild-type mice pre-treated with NextA and incubated with OVA peptide for 24 hours.
Bone marrow derived macrophages: For macrophage isolation, bone marrow from 6-12 weeks old C57BL/6 mouse was used following an IACUC approved protocol. Briefly, femurs and tibia bones were isolated after removing the skeletal muscles. The bone marrow was flushed with RPMI complete medium supplemented with non-essential amino acids. A single-cell suspension of bone marrow was prepared with repeated pipetting and incubated with 20 ng/mL of mouse recombinant M-CSF (Biolegend) at 37° C. for 4 days to differentiate into macrophages. […]
Endogenous peptides are usually presented through MHC-I to CD8 T-cells and exogenous (from other cells such as tumors) peptides through MHC-II to CD4 T-cells. […] Taking advantage of a highly specific antibody recognizing MHC-I loaded with SIINFEKL peptide, efficiency of antigen XPT was determined. […]

[2] = system: SM1-OVA murine melanoma cells; assay: MHCI and MHCI-SIINFEKL levels in SM1-OVA melanoma cells by flow cytometry; assay type: cell-based, mouse; settings: for MHC-I mediated SIINFEKL antigen presentation: over time
Protocol: FIG. 3 is a bar graph showing the MHCI and MHCI-SIINFEKL levels after SM1-OVA (SM1 cells expressing OVA peptide) melanoma cells were treated with 5 μM NextA for 24 hours. MHCI and MHCI-SIINFEKL levels were measured by FACS.
FIG. 25 is a panel of four bar graphs showing the MHCI-SIINFEKL levels when SM1 cells stably expressing OVA (SM1-OVA cells) peptide are exposed to 4 Gy of radiation, NextA, or a combination at the times indicated. MHC-I mediated SIINFEKL antigen presentation was measured by flow cytometry.
Cell culture: SM1 murine melanoma cells were obtained from Dr. A. Ribas at the University of California, Los Angeles, and cultured in an incubator in RPMI 1640, 1% penicillin-streptomycin, and 10% fetal bovine serum at 37° C. with 5% CO2.
(§1) Flow cytometry: Flow cytometry was performed following the protocol described previously. Knox et al., Sci Rep. 2019 Oct. 10; 9(1):14824. doi: 10.1038/s41598-019-51403-6. Briefly, mice were euthanized following the IACUC protocol, and tumor cells were processed into a single cell suspension for analysis by flow cytometry with tumor digestion buffer. The following antibodies were used to stain cell surface markers expressed by different immune cells. All the antibodies were purchased from Biolegend (San Diego, CA) unless otherwise specified. Myeloid cell surface markers are as follows: APC anti-mouse CD80 (clone 16-10A1), PE/Cy7 anti-mouse CD206 (MMR) (clone C068C2), APC/Fire™ 750 anti-mouse CD45.2 (clone 104), FITC anti-mouse H-2 (clone M1/42), Brilliant Violet 785™ anti-mouse F4/80 (clone BM8), and Alexa Fluor® 700 anti-mouse CD3 (clone 17A2). To distinguish between MHCI and MHCI-bound to SIINFEKL, we used APC anti-mouse H-2Kb bound to SIINFEKL antibody (clone 25-D1.16). Multi-color flow data acquisition was performed on BD Celesta, and data analysis was performed with FlowJo software (version 10.3). Statistical analyses were performed with GraphPad Prism Software (version 7.03).
The combination of radiation and HDAC6 inhibition increases antigen presentation in a time dependent manner. […] Radiation with HDAC6 inhibition increases antigen presentation in tumor cells. FIG. 25. The sequencing of NextA and radiation treatment for effective antigen presentation in tumor cells is show in FIG. 26.

[3] = system: Bone marrow derived macrophages (BMDMs); assay: Polarization of bone marrow derived macrophages to M1 (LPS/IFNγ) or M2 (IL4/IL13) phenotype by flow cytometry; assay type: cell-based, mouse
Protocol: (§2) Bone marrow derived macrophages: For macrophage isolation, bone marrow from 6-12 weeks old C57BL/6 mouse was used following an IACUC approved protocol. Briefly, femurs and tibia bones were isolated after removing the skeletal muscles. The bone marrow was flushed with RPMI complete medium supplemented with non-essential amino acids. A single-cell suspension of bone marrow was prepared with repeated pipetting and incubated with 20 ng/mL of mouse recombinant M-CSF (Biolegend) at 37° C. for 4 days to differentiate into macrophages.
as §1
Bone marrow derived macrophages (BMDMs) isolated from femur and tibia of C57BL/6 mouse were differentiated into macrophages with M-CSF. These naïve macrophages were pre-treated with NextA and polarized to M1 macrophages with LPS/IFNγ or M2 macrophages with IL4/IL13.

[4] = system: bone marrow derived macrophages; assay: Gene expression of polarization markers, cytokines and antigen processing genes in macrophages by quantitative real-time PCR; assay type: cell-based, mouse
Protocol: Quantitative analysis of gene expression. Total RNA was isolated from cells following the manufacturer's instructions of QIAzol lysis reagent (Qiagen, 79306). RNA quantification was done using a NanoDrop One spectrophotometer (NanoDrop Technologies). Samples with absorbance at 260/280 nm ratios over 1.9 were used for cDNA synthesis with the iScript cDNA synthesis kit (Bio-Rad, 1708891). Synthesized cDNA from 1 μg of total RNA was diluted 1:10 with nuclease-free water. The quantitative PCR analysis was performed using iQ SYBR Green Supermix (Bio-Rad, 1708882) on a CFX96 real-time system (Bio-Rad). Gene expression analysis was performed using the 2^−ΔΔCt method, and target mRNA levels were normalized to GAPDH expression. Cycling conditions were used as per the manufacturer's instructions. Single PCR product amplification was confirmed by melting curve analysis in all the experiments performed.
as §2
Further validation of M2 polarization markers at gene expression levels by quantitative real-time PCR indicate that Arginase I, IL-10 and TGFβ, which are tumor-promoting factors, were decreased. FIG. 9, FIG. 10, and FIG. 11. The expression of M1 polarization markers and anti-tumor, pro-inflammatory cytokines such as TNFα and IL-1B were increased. FIG. 12 and FIG. 13.

[5] = system: Macrophages
[6] = M1 macrophages compared to M0 after treatment
[7] = pre-treated polarized macrophages

Q: How did the “M1 XPT (cross-presentation of SIINFEKL peptide by MHC-I)” value [1] turn out when `CCCCN(Cc1ccc(C(=O)NO)cc1)C(=O)Nc1ccccc1` [NextA, Nexturastat A] was run?
A: increased

Q: What about the “presence of MHC I” value ([2]; 5 μM NextA for 24 hours) of the same compound?
A: increased

Q: And the “presence of SIINFEKL-loaded MHC-I” value ([2]; 5 μM NextA for 24 hours)?
A: increased

Q: What about the “MHC-I mediated SIINFEKL antigen presentation” value ([2]; NextA alone) of the same compound?
A: time dependent increases

Q: What about the “MHC-I mediated SIINFEKL antigen presentation” value ([2]; NextA in combination with 4 Gy of radiation) of the same compound?
A: time dependent increases

Q: And the “pro-tumoral M2 phenotype of macrophages” value ([3]; data not shown)?
A: reduced

Q: And the “polarization of M2 macrophages” value ([3]; pre-treatment of naïve macrophages, then IL4/IL13)?
A: decreased

Q: And the “polarization of M1 macrophages” value ([3]; pre-treatment of naïve macrophages, then LPS/IFNγ)?
A: did not affect

Q: And the “IL1 beta expression (M1 pro-inflammatory cytokine)” value ([4]; M0 macrophages)?
A: increases

Q: And the “IL10 expression (M2 anti-inflammatory cytokine)” value ([4]; M0 macrophages)?
A: decreased

Q: And the “IL12 expression (M1 pro-inflammatory cytokine)” value ([4]; M0 macrophages)?
A: increases

Q: And the “TGF beta expression (M2 anti-inflammatory cytokine)” value ([4]; M0 macrophages)?
A: decreased

Q: And the “TNF alpha expression (M1 pro-inflammatory cytokine)” value ([4]; M0 macrophages)?
A: increases

Q: What about the ERAP1 gene expression [4, 6] of the same compound?
A: increased

Q: What about the TAP1 gene expression [4, 6] of the same compound?
A: increased

Q: What about the TAP2 gene expression [4, 6] of the same compound?
A: increased

Q: What about the TAPBP gene expression [4, 6] of the same compound?
A: increased

Q: And the “Arginase I gene expression (M2 polarization marker)” value [4, 7]?
A: decreased

Q: And the “IL-1B gene expression (M1 marker)” value [4, 7]?
A: increased

Q: And the “IL-10 gene expression (M2 marker)” value [4, 7]?
A: decreased

Q: What about the “TGFβ gene expression (M2 marker)” value [4, 7] of the same compound?
A: decreased

Q: What about the “TNFα gene expression (M1 marker)” value [4, 7] of the same compound?
A: increased

Q: What about the “concentration over which high cytotoxicity is induced” value [5] of the same compound?
A: over 5 μM
